Experimental data published in the NIST ThermoML archive (doi:10.1021/je060271a).
Where “and” joins values, the source holds several entries; their conditions need not be identical. Equal entries are not always repeated.

Conditions: 283.15 K, Liquid, Vibrating tube method

CCCCCCCC(=O)OCC(COC(=O)CCCCCCC)(COC(=O)CCCCCCC)COC(=O)CCCCCCC [pentaerythritol tetraoctanoate]
Conditions | mass density
4499.9 kPa | 972.9 kg/m3
4501.9 kPa | 972.9 kg/m3
4502.4 kPa | 972.9 kg/m3
4503 kPa | 972.9 kg/m3 and 972.8 kg/m3
4503.5 kPa | 972.8 kg/m3 and 972.9 kg/m3
4505.4 kPa | 972.9 kg/m3
4508 kPa | 973 kg/m3
4510.6 kPa | 972.9 kg/m3
4512.1 kPa | 972.8 kg/m3
4513.2 kPa | 972.9 kg/m3
4519.1 kPa | 972.9 kg/m3
4544.7 kPa | 972.8 kg/m3
4566.3 kPa | 972.8 kg/m3
4589 kPa | 972.9 kg/m3
4613.1 kPa | 972.9 kg/m3
4644 kPa | 972.9 kg/m3
4671.2 kPa | 973 kg/m3
4696.3 kPa | 973 kg/m3
4730.1 kPa | 973 kg/m3
4758.6 kPa | 973 kg/m3
4787.7 kPa | 973.1 kg/m3
4817.5 kPa | 973.1 kg/m3
4847.6 kPa | 972.9 kg/m3
4883.9 kPa | 973 kg/m3
4914.4 kPa | 973.1 kg/m3
4945.7 kPa | 973.1 kg/m3
4982.7 kPa | 973.1 kg/m3
5014 kPa | 973.2 kg/m3
5046.2 kPa | 973.1 kg/m3
5085.5 kPa | 973.2 kg/m3
5118.2 kPa | 973.2 kg/m3
5152.1 kPa | 973.1 kg/m3
5187.4 kPa | 973.3 kg/m3
5230.5 kPa | 973.3 kg/m3
5268 kPa | 973.4 kg/m3
5301.1 kPa | 973.3 kg/m3
5328.4 kPa | 973.3 kg/m3
5360.9 kPa | 973.4 kg/m3
5388.3 kPa | 973.3 kg/m3
5416.4 kPa | 973.3 kg/m3
5445 kPa | 973.4 kg/m3
5479.2 kPa | 973.5 kg/m3
5507.9 kPa | 973.4 kg/m3
5537.9 kPa | 973.4 kg/m3
5567.3 kPa | 973.5 kg/m3
5603.1 kPa | 973.6 kg/m3
5664.1 kPa | 973.4 kg/m3
5695.6 kPa | 973.6 kg/m3
5733.6 kPa | 973.7 kg/m3
5766.5 kPa | 973.5 kg/m3
5806.4 kPa | 973.6 kg/m3
5839.8 kPa | 973.6 kg/m3
5864 kPa | 973.6 kg/m3
5890.1 kPa | 973.8 kg/m3
5912.2 kPa | 973.6 kg/m3
5934.9 kPa | 973.7 kg/m3
5958.4 kPa | 973.7 kg/m3
5985.4 kPa | 973.8 kg/m3
6009 kPa | 973.7 kg/m3
6033.2 kPa | 973.8 kg/m3
6058.3 kPa | 973.9 kg/m3
6083.5 kPa | 973.7 kg/m3
6114.7 kPa | 973.7 kg/m3
6133.8 kPa | 973.8 kg/m3
6146.1 kPa | 973.7 kg/m3
6160.5 kPa | 973.8 kg/m3
6172.9 kPa | 973.9 kg/m3
6185.2 kPa | 973.8 kg/m3
6197.6 kPa | 973.8 kg/m3
6211.8 kPa | 973.8 kg/m3
6223.9 kPa | 973.8 kg/m3
6236.2 kPa | 973.9 kg/m3
6249.3 kPa | 973.9 kg/m3
6264.2 kPa | 973.9 kg/m3
6277.1 kPa | 974.1 kg/m3
6289.8 kPa | 973.9 kg/m3
6302.4 kPa | 973.9 kg/m3
6317.2 kPa | 973.8 kg/m3
6330 kPa | 973.9 kg/m3
6342.8 kPa | 974 kg/m3
6358 kPa | 974 kg/m3
6370.8 kPa | 973.9 kg/m3
6383.6 kPa | 973.9 kg/m3
6399 kPa | 973.9 kg/m3
6412.5 kPa | 974 kg/m3
6425.5 kPa | 973.9 kg/m3
6438.7 kPa | 974 kg/m3
6452 kPa | 974 kg/m3
6467.9 kPa | 974 kg/m3
6481 kPa | 974 kg/m3
6494.5 kPa | 974.2 kg/m3
6510.4 kPa | 974 kg/m3
6523.9 kPa | 974 kg/m3
6537.9 kPa | 974.1 kg/m3
6551.3 kPa | 973.9 kg/m3
6567.7 kPa | 974.1 kg/m3
6581.8 kPa | 974 kg/m3
6596.4 kPa | 974.1 kg/m3
6610.8 kPa | 974.1 kg/m3
6627.5 kPa | 974.1 kg/m3
6641.5 kPa | 974.1 kg/m3
6655.5 kPa | 974 kg/m3
6669.7 kPa | 974.1 kg/m3
6686.6 kPa | 974.2 kg/m3
6700.8 kPa | 974.1 kg/m3
6715.1 kPa | 974.1 kg/m3
6732.2 kPa | 974.1 kg/m3
6746.8 kPa | 974.1 kg/m3
6761.4 kPa | 974.2 kg/m3
6776.5 kPa | 974.1 kg/m3
6793.7 kPa | 974.1 kg/m3
6808.6 kPa | 974.2 kg/m3
6823.5 kPa | 974.2 kg/m3
6838.3 kPa | 974 kg/m3
6856.4 kPa | 974.1 kg/m3
6871.7 kPa | 974.2 kg/m3
6886.9 kPa | 974.2 kg/m3
6902.1 kPa | 974.3 kg/m3
6920.2 kPa | 974.3 kg/m3
6935.4 kPa | 974.3 kg/m3
6950.9 kPa | 974.3 kg/m3
6969.4 kPa | 974.3 kg/m3
6985 kPa | 974.3 kg/m3
7001 kPa | 974.3 kg/m3
7016.8 kPa | 974.3 kg/m3
7035.6 kPa | 974.3 kg/m3
7051.3 kPa | 974.3 kg/m3
7067 kPa | 974.3 kg/m3
7083.6 kPa | 974.3 kg/m3
7102.8 kPa | 974.3 kg/m3
7119 kPa | 974.3 kg/m3
7135.2 kPa | 974.4 kg/m3
7154.7 kPa | 974.4 kg/m3
7171.1 kPa | 974.3 kg/m3
7187.5 kPa | 974.3 kg/m3
7204.5 kPa | 974.4 kg/m3
7221.2 kPa | 974.5 kg/m3
7241.1 kPa | 974.5 kg/m3
7257.8 kPa | 974.4 kg/m3
7274.9 kPa | 974.6 kg/m3
7295 kPa | 974.5 kg/m3
7311.7 kPa | 974.4 kg/m3
7329.3 kPa | 974.4 kg/m3
7346.6 kPa | 974.5 kg/m3
7367.1 kPa | 974.6 kg/m3
7384.6 kPa | 974.5 kg/m3
7402.3 kPa | 974.6 kg/m3
7423.4 kPa | 974.5 kg/m3
